Like-named read-outs stand apart in the source and are kept apart here.
Columns and labels:
mGluR1 [1] = system: mGluR1; parameters: method as in PMID 23135321; conditions: PET; cited from earlier work
[2] = system: ABCB1 (permeability glycoprotein (P-gp)) and ABCG2 (breast cancer resistance protein (BCRP)); parameters: method as in PMID 23135321; conditions: genetic knockout mice for ABCB1 and ABCG2; cited from earlier work
other human mGluRs = system: other human mGluRs; parameters: method as in PMID 23135321; conditions: cited from earlier work
human mGluR1s = target: human mGluR1s; parameters: method as in PMID 23135321; conditions: cited from earlier work
[3] = cited from earlier work
[4] = parameters: method as in earlier work; conditions: cited from earlier work; for Exposure SUV (0 to 20): AUC of plasma concentration vs. time, 0 to 20 min, data of previous studies; for fp: human plasma; for Brain peak SUV: human
[5] = Brain exposure comparison of five radioligands; assay type: in vivo, human
Experimental: Another complicating factor is low delivery to brain (i.e., low drug exposure), which may have cause low brain uptake. We compared five different radioligands from previous studies with regard to exposure to brain (Table 3) and measured the area under the curve of plasma concentration vs. time from 0 to 20 min. […] The effective exposure was thus named because only the free concentration of drug can cross the blood–brain barrier. ^11C-LY2428703 had the highest exposure value among the tracers tested. This high exposure was due to the slow wash-out of the tracer from the vascular compartment and to negligible metabolism in plasma, that is, parent radioligand represented 99% of plasma radioactivity even at the end of the 2-h scanning session.

mGluR1 [6] = target: mGluR1; parameters: method as in PMID 23135321; conditions: rats; read-out: in vitro affinity; cited from earlier work
[7] = fp × AUC0 to 20, comparators from data of refs 22, 19, 23, 24

COc1ccc(-c2nsc(NC(=O)[C@@H]3C[C@H]3C)c2C)cc1 [LY2428703]
signal in rat cerebellum (mGluR1 [1]): large specific and displaceable signal
substrate for efflux transporters at the blood–brain barrier [2]: not a substrate
affinity for other human mGluRs (other human mGluRs): no significant affinity
Ki (human mGluR1s; females, read-out: Ki): 1.4 ± 0.4 nM
Ki (human mGluR1s; males, read-out: Ki): 2.7 ± 0.5 nM

CC(C)Nc1cc(-c2csc(N(C)C(=O)c3ccc([18F])cc3)n2)ncn1 [^18F-FITM, reference compound]
LogD [3]: 1.5

[11CH3]NC(=O)[C@@H](Cc1ccccc1F)CN1CCC2(CC1)OCCc1cc(F)sc12 [^11C-NOP1A]
Exposure SUV (0 to 20) [4]: 36.7 SUV
fp [4]: 10.1%
Brain peak SUV [4]: 5 to 7 SUV
Effective exposure (E × fp) [5, 7]: 3.7

COc1ccc(-c2nsc(NC(=O)[C@@H]3C[C@H]3C)c2C)cc1 [^11C-LY2428703]
Ki (mGluR1 [6]): 0.6 nM
Ki (human mGluR1s; humans, read-out: in vitro affinity): ~2 nM

C[C@@H](N[C@@H]1C[C@H](c2cccc(OC[18F])c2)N(c2ccc(C(F)(F)F)cc2)C1=O)c1ccccc1 [^18F-FMPEP]
Exposure SUV (0 to 20) [4]: 47.8 SUV
fp [4]: 0.63%
Brain peak SUV [4]: 3 to 4 SUV
Effective exposure (E × fp) [5, 7]: 0.30

N#Cc1cc(F)cc(C#Cc2csc(C[18F])n2)c1 [^18F-SP203]
Exposure SUV (0 to 20) [4]: 37.0 SUV
fp [4]: 5.2%
Brain peak SUV [4]: ~6 SUV
Effective exposure (E × fp) ([5]; in vivo): 1.9

[11CH3]Oc1ccc([C@@H]2CNC(=O)C2)cc1OC1CCCC1 [^11C-( R )-rolipram]
Exposure SUV (0 to 20) [4]: 124.9 SUV
fp [4]: 6.4%
Brain peak SUV [4]: 2 to 2.5 SUV
Effective exposure (E × fp) ([5]; in vivo): 8.0

Source: PMC3683333, “^11C-LY2428703, a positron emission tomographic radioligand for the metabotropic glutamate receptor 1, is unsuitable for imaging in monkey and human brains” (EJNMMI Research, 2013)
